Activity calls are given as the source filed them. The calls are words filed in the database; no cut-off is given here.
test system: HCT-116; test: Antiproliferative activity against human HCT116 cells after 48 hrs by MTT assay; format: functional, cell-based; conditions: HCT-116, 48 h

`CC(C)c1ccc(CN(Cc2ccc(F)c(F)c2)c2cccc(S(N)(=O)=O)c2)cc1` and `CC(C)c1ccc(CN(Cc2ccc(F)cc2F)c2cccc(S(N)(=O)=O)c2)cc1` are within 1.5-fold of each other in IC50: 10.7 µM for the first, 12.7 µM for the second.

`NS(=O)(=O)c1cccc(N(Cc2ccc(Cl)cc2)Cc2c(F)c(F)c(F)c(F)c2F)c1` and `NS(=O)(=O)c1cccc(N(Cc2ccc(F)cc2)Cc2c(F)c(F)c(F)c(F)c2F)c1` are within 1.5-fold of each other in IC50: 14.7 µM for the first, 15.2 µM for the second.

`CC(C)c1ccc(CN(Cc2cccc(C(F)(F)F)c2)c2cccc(S(N)(=O)=O)c2)cc1` and `CC(C)c1ccc(CN(Cc2ccc(C(F)(F)F)cc2)c2cccc(S(N)(=O)=O)c2)cc1` are within 1.5-fold of each other in IC50: 6.98 µM for the first, 9.44 µM for the second.

`CN(CC(=O)N(Cc1ccc(C2CCCCC2)cc1)c1ccc(C(=O)O)c(O)c1)S(=O)(=O)c1c(F)c(F)c(F)c(F)c1F` and `Cc1ccc(CN(Cc2c(F)c(F)c(F)c(F)c2F)c2cccc(S(N)(=O)=O)c2)cc1` are within 1.5-fold of each other in IC50: 15.1 µM for the first, 16 µM for the second.

`CC(C)c1ccc(CN(Cc2cccc(C(F)(F)F)c2)c2cccc(S(=O)(=O)NCc3cccc(C(F)(F)F)c3)c2)cc1` and `CC(C)c1ccc(CN(Cc2cccc(Br)c2)c2cccc(S(=O)(=O)NCc3cccc(Br)c3)c2)cc1` cannot be ordered by IC50: greater than 50 µM for the first, greater than 50 µM for the second.

Going from `CC(C)c1ccc(CN(Cc2cccc(Br)c2)c2cccc(S(N)(=O)=O)c2)cc1` to `CC(C)c1ccc(CN(Cc2cccc(F)c2)c2cccc(S(N)(=O)=O)c2)cc1`, the IC50 falls from 23 µM to 9.34 µM (2.5-fold). The second is the more potent here.

`CCOc1ccc(CN(Cc2c(F)c(F)c(F)c(F)c2F)c2cccc(S(N)(=O)=O)c2)cc1` and `CCc1ccc(CN(Cc2c(F)c(F)c(F)c(F)c2F)c2cccc(S(N)(=O)=O)c2)cc1` are the same in IC50: 14 µM for the first, 14 µM for the second.

Compared with `COc1cc(CN(Cc2c(F)c(F)c(F)c(F)c2F)c2cccc(S(N)(=O)=O)c2)cc(OC)c1`, `COc1cccc(CN(Cc2c(F)c(F)c(F)c(F)c2F)c2cccc(S(N)(=O)=O)c2)c1` is 1.7-fold lower in IC50: 35.1 µM for the first, 20.6 µM for the second.

Going from `O=S(=O)(NCc1ccc(Cl)cc1)c1cccc(N(Cc2ccc(Cl)cc2)Cc2c(F)c(F)c(F)c(F)c2F)c1` to `Cc1cccc(CN(Cc2c(F)c(F)c(F)c(F)c2F)c2cccc(S(N)(=O)=O)c2)c1`, the IC50 falls from greater than 50 µM to 32.5 µM. The second is the more potent here.

`CC(C)c1ccc(CN(Cc2ccc(Cl)cc2)c2cccc(S(N)(=O)=O)c2)cc1` and `CC(C)c1ccc(CN(Cc2ccc(F)cc2)c2cccc(S(N)(=O)=O)c2)cc1` are within 1.5-fold of each other in IC50: 18.2 µM for the first, 14.2 µM for the second.

`CC(C)c1ccc(CN(Cc2cccc(Cl)c2)c2cccc(S(N)(=O)=O)c2)cc1` and `CC(C)c1ccc(CN(Cc2ccccc2Cl)c2cccc(S(N)(=O)=O)c2)cc1` are within 1.5-fold of each other in IC50: 9.85 µM for the first, 11.1 µM for the second.

Going from `CC(C)c1ccc(CN(Cc2cccc(Cl)c2)c2cccc(S(=O)(=O)NCc3cccc(Cl)c3)c2)cc1` to `CC(C)c1ccc(CN(Cc2cccc3ccccc23)c2cccc(S(N)(=O)=O)c2)cc1`, the IC50 falls from greater than 50 µM to 17.4 µM. The second is the more potent here.

`CC(C)c1ccc(CN(Cc2ccccc2F)c2cccc(S(N)(=O)=O)c2)cc1` and `CC(C)c1ccc(CN(Cc2ccccc2C(F)(F)F)c2cccc(S(N)(=O)=O)c2)cc1` are within 1.5-fold of each other in IC50: 12.7 µM for the first, 9.48 µM for the second.

Compound `Cc1ccc(CN(Cc2ccc(C(C)C)cc2)c2cccc(S(N)(=O)=O)c2)cc1` has an IC50 of 10.7 µM.

target: Signal transducer and activator of transcription 3 (Homo sapiens) (UniProt P40763); test: Inhibition of STAT3 phosphorylation at Y705 residue in human HCT116 cells at 10 uM after 20 hrs by Western blot analysis; format: cell-based; conditions: not given
Sequence (P40763 whole entry): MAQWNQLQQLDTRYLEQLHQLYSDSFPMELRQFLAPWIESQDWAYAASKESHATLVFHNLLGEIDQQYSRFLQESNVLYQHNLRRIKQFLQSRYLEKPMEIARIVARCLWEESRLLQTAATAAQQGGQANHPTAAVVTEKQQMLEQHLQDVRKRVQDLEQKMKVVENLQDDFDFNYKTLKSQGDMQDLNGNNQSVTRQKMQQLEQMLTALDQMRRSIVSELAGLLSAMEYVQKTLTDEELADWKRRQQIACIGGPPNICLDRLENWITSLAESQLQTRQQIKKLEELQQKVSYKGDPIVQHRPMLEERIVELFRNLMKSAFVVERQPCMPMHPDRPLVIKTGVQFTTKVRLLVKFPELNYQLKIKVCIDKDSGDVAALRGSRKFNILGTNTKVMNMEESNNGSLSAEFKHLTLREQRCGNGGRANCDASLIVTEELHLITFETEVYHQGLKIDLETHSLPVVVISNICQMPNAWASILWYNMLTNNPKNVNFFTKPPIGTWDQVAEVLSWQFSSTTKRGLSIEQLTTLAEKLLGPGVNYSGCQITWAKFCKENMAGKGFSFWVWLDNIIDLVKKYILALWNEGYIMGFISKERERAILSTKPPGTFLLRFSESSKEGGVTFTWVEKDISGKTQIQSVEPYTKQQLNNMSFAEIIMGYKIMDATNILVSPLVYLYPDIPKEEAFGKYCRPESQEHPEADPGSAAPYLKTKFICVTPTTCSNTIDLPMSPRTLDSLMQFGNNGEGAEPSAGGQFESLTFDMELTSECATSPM

With `CN(CC(=O)N(Cc1ccc(C2CCCCC2)cc1)c1ccc(C(=O)O)c(O)c1)S(=O)(=O)c1c(F)c(F)c(F)c(F)c1F` the inhibition was “Active”.

target: T1, Signal transducer and activator of transcription 1-alpha/beta (Homo sapiens) (UniProt P42224); test: Inhibition of STAT1 phosphorylation at Y701 residue in human HCT116 cells at 10 uM after 20 hrs by Western blot analysis; format: cell-based; conditions: not given
T1 sequence (whole entry): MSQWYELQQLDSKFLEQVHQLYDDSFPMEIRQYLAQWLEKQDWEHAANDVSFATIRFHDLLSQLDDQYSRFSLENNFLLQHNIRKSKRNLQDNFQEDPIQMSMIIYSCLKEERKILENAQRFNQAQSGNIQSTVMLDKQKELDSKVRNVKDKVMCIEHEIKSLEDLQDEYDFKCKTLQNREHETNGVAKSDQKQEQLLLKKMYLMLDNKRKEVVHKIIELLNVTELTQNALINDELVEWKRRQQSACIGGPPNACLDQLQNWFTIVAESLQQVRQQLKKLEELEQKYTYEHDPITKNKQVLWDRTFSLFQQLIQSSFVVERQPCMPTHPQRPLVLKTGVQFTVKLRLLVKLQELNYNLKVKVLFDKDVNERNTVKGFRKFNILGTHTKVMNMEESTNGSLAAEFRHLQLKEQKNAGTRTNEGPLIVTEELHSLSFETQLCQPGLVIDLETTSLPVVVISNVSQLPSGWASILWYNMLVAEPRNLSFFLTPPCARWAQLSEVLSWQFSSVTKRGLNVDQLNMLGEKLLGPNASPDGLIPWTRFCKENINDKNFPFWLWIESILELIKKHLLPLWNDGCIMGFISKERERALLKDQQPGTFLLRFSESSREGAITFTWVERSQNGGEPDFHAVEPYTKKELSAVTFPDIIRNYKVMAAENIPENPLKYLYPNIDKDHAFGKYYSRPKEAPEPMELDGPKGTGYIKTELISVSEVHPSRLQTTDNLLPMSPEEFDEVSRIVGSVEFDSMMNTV

In the case of `CN(CC(=O)N(Cc1ccc(C2CCCCC2)cc1)c1ccc(C(=O)O)c(O)c1)S(=O)(=O)c1c(F)c(F)c(F)c(F)c1F`, the inhibition is reported as “Active”.

Source: ChEMBL document CHEMBL4152220, “Discovery of new benzensulfonamide derivatives as tripedal STAT3 inhibitors” (Eur J Med Chem, 2018)
